The target in assay [1] is Voltage-dependent T-type calcium channel subunit alpha-1H (Homo sapiens, UniProt O95180). The assay can be described thus: human CACNA1H calcium influx blockade – cell-based, synthetic library set 2, HEK293 HH8, Fluo-4, SAR follow-up (AID 493023). The assay is classed as functional.
A short description of assay [2]: Luminescence Cell-Based Dose Response HTS to Identify Inhibitors of Luciferase Translation or Activity in H4-C Neuroglioblastoma Cells. [Related pubchem assays: 1813 (Primary HTS), 1827 (Project Summary)]. In kind it is functional.
A short description of assay [3]: Luminescence Cell-Based Dose HTS Response to Identify Inhibitors of 5'UTR Stem-Loop Driven Prion Protein mRNA Translation in H4-C Neuroglioblastoma Cells. [Related pubchem assays (depositor defined):AID1814, AID1827]. The assay is classed as functional.
The nature of assay [4]: Luminescence Cell-Based Dose Response HTS to Identify Activators of Luciferase Translation or Activity in H4-C Neuroglioblastoma Cells. [Related pubchem assays: 1829 (Project Summary), 1814 (Primary HTS)]. In kind it is functional.
Assay [5] can be described thus: Luminescence Cell-Based Dose Confirmation HTS to Identify Inhibitors of 5'UTR Stem-Loop Driven Alpha-Synuclein mRNA Translation in H4 Neuroglioblastoma Cells. [Related pubchem assays: 1827 (Project Summary), 1813 (Primary HTS)]. In kind it is functional.
Assay [6] can be described thus: Luminescence Cell-Based Dose Retest to Confirm Activators of 5'UTR Stem-Loop Driven Alpha-Synuclein mRNA Translation in H4 Neuroglioblastoma Cells. [Related pubchem assays (depositor defined):AID1813, AID1829]. The assay is classed as functional.
A short description of assay [7]: Luminescence Cell-Based Dose Response HTS to Identify Activators of 5'UTR Stem-Loop Driven Prion Protein mRNA Translation in H4-C Neuroglioblastoma Cells. [Related pubchem assays: 1829 (Project Summary), 1814 (Primary HTS)]. In kind it is functional.
The next assay has as its target T1, Protein RecA (Mycobacterium tuberculosis, UniProt P9WHJ3).
T1 sequence (P9WHJ3 whole entry): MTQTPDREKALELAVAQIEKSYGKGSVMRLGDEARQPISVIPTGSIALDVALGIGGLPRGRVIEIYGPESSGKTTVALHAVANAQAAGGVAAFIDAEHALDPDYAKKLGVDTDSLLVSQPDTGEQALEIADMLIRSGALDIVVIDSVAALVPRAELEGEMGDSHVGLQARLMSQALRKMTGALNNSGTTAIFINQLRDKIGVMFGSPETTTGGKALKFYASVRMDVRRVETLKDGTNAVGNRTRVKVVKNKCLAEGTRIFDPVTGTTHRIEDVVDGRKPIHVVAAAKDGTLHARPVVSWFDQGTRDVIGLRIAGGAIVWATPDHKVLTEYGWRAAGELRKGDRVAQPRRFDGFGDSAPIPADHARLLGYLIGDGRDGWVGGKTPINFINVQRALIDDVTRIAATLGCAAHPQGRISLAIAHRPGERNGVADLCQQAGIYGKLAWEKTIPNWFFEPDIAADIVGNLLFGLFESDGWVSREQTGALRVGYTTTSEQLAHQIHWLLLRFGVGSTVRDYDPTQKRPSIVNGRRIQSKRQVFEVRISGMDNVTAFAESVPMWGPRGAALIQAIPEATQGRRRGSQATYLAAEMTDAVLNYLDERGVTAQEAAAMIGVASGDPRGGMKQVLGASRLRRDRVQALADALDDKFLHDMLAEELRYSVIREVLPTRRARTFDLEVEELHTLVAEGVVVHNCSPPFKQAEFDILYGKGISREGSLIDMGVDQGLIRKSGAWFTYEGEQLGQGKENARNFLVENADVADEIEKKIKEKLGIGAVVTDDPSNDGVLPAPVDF
Briefly: Fluorescence Cell-Free Homogeneous Dose Retest to Identify Inhibitors of RecA-Intein Splicing Activity. [Related pubchem assays (depositor defined):AID2097, AID2223, AID489010, AID492950]. The assay is classed as functional.

Assay [8] in a line: Intein inhibitors as potential Tuberculosis drugs, a cytotoxicity screen. [Related pubchem assays (depositor defined):AID2221, AID2223, AID434968, AID435010, AID449749, AID449750, AID489010]. In kind it is functional.
A further assay has as its target Cytochrome P450 2D6 (Homo sapiens, UniProt P10635).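 Further: CYP2D6 member of a cytochrome P450 panel assay.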
The target of assay [9] is T2, Replicative DNA helicase DnaB (Mycobacterium tuberculosis, UniProt P9WMR3).
T2 sequence (P9WMR3 whole entry): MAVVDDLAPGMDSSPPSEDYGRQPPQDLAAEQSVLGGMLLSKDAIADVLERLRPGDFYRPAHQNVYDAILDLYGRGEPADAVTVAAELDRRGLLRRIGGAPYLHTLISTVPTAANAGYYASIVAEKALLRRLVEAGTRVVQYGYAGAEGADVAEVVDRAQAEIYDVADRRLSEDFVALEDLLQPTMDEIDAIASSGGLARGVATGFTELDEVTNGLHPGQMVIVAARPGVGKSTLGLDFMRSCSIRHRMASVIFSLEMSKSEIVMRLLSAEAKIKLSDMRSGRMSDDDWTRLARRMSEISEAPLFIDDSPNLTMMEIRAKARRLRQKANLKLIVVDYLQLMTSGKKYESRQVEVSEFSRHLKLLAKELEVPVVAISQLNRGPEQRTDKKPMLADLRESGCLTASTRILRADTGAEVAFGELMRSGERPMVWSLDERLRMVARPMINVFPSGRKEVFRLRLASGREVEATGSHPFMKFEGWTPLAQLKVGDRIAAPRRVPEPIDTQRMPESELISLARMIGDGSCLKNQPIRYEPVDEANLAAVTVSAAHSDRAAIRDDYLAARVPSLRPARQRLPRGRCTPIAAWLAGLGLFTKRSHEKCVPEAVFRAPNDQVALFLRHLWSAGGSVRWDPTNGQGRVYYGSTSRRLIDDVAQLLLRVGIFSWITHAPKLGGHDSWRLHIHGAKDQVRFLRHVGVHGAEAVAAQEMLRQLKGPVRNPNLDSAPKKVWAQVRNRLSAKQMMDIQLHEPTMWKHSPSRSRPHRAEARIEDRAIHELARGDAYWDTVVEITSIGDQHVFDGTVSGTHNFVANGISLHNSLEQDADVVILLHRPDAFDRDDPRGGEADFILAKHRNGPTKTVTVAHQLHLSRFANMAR
Briefly: DnaB intein splicing inhibitors, dose response, biochemical, cell-free fluorescence (AID 449749). In kind it is functional.

Assay [10] in a line: Luminescence Cell-Based Dose Retest to Confirm Inhibitors of Cancer Stem Cells. [Related pubchem assays (depositor defined):AID2717, AID2721]. The assay is classed as functional. The following applies: Homo sapiens.
The target of assay [11] is Intestinal-type alkaline phosphatase (Homo sapiens, UniProt P09923). Briefly: human intestinal alkaline phosphatase activators, dose response, biochemical, luminescence, uHTS hits (AID 463120). In kind it is functional.
Sequence of Intestinal-type alkaline phosphatase (P09923 whole entry): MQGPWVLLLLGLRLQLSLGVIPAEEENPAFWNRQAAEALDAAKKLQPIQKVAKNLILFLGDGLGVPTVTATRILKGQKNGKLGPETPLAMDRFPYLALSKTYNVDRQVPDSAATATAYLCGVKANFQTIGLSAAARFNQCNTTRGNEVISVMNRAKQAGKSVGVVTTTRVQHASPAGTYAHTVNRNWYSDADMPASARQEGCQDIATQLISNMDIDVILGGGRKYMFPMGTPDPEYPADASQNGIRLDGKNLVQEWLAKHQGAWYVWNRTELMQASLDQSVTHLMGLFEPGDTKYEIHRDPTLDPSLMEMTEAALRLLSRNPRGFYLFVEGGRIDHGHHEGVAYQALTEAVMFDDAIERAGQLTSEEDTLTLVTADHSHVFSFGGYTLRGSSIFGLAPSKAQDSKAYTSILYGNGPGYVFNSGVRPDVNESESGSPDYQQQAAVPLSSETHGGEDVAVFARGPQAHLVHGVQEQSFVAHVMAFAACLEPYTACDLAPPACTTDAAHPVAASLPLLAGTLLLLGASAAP
Assay [12] in a line: alpha-synuclein stem-loop luciferase translation blockers – H4 neuroglioma cells, luminescence, confirmation (AID 1988). The assay is classed as functional, cell-based.
The nature of assay [13]: luciferase reporter signal suppression in cells – H4 neuroglioma cells, luminescence, dose response (AID 1990). The assay is classed as functional, cell-based. (In general: A reporter such as luciferase makes a cellular process visible.)
The nature of assay [14]: Luminescence Cell-Based Dose Response HTS to Identify Inhibitors of 5'UTR Stem-Loop Driven Prion Protein mRNA Translation in H4 Neuroglioblastoma Cells. [Related pubchem assays: 1827 (Project Summary), 1813 (Primary HTS)]. In kind it is functional.
Assay [15] concerns the target T3, E3 ubiquitin-protein ligase XIAP (Homo sapiens, UniProt P98170). Briefly: Counter Screen using XIAP-Bir3 for Chemical Antagonists of Bir1/2 domains of IAP-family anti-apoptotic proteins. [Related pubchem assays (depositor defined):AID1018, AID1449, AID1514, AID1638, AID1749, AID1750, AID488957, AID488963]. On the technique in general: The purpose of a counterscreen is to sort out artefacts and off-target activity.

For assay [16], the target named is T3, E3 ubiquitin-protein ligase XIAP. The assay can be described thus: small molecules displacing peptide from XIAP – biochemical, IAP family, fluorescence polarization (AID 1018). The assay is classed as functional.
The target in a further assay is T4, Hexokinase HKDC1 (Homo sapiens, UniProt Q2TB90).
T4 sequence (Q2TB90 whole entry): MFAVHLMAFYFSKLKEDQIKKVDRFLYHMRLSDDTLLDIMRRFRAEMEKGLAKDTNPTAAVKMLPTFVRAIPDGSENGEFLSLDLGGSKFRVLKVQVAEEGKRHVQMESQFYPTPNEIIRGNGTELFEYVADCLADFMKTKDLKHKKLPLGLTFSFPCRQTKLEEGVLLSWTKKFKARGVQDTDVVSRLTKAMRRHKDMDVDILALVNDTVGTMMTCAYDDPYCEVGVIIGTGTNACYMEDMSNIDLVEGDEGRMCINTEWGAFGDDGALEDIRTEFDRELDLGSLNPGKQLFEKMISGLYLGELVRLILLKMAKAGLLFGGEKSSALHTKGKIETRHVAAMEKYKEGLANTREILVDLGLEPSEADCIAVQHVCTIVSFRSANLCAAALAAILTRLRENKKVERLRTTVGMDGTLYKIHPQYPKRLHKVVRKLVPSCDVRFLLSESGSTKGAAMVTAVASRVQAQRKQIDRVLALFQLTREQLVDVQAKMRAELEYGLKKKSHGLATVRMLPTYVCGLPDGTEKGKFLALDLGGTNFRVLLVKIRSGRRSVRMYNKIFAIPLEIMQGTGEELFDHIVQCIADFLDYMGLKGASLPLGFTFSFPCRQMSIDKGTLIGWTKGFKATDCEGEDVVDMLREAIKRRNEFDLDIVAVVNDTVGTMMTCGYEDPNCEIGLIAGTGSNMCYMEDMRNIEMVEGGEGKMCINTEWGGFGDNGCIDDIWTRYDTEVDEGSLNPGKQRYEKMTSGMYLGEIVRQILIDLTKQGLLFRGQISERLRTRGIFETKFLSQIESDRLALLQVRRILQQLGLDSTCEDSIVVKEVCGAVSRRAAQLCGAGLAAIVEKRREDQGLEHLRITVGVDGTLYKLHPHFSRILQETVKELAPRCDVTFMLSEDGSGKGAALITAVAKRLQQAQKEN
The assay can be described thus: activation of HKDC1 glucose phosphorylation – biochemical, W721R variant, dose response (AID 504730). In kind it is functional.

A further assay has as its target T5, Hexokinase-1 (Homo sapiens, UniProt P19367).
T5 sequence (P19367 whole entry): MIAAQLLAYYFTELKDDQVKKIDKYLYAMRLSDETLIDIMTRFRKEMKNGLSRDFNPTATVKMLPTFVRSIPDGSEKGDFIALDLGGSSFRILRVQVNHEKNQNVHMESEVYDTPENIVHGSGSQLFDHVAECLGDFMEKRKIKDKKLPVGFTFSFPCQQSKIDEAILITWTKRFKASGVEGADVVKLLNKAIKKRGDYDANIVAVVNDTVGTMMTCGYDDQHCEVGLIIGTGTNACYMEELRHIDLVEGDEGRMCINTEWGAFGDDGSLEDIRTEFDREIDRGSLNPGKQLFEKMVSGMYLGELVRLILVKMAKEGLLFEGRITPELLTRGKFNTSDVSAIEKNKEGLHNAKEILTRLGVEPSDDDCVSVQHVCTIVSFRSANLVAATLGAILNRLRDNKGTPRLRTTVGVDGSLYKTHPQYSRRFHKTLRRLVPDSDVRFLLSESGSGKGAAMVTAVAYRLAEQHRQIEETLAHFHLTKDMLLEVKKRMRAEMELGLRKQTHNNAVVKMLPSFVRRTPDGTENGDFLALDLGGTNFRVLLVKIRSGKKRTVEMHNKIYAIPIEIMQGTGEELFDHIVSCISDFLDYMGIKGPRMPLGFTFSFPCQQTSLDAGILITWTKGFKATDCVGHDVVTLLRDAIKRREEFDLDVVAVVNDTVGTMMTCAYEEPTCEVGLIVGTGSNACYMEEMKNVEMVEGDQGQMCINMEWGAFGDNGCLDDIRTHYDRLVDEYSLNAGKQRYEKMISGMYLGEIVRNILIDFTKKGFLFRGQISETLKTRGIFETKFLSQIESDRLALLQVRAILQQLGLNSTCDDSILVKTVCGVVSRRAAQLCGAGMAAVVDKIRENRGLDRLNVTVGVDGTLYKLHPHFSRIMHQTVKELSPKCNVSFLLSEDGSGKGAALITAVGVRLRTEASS
Briefly: HK1 enzyme activation by HKDC1 hits – biochemical, selectivity assay for HKDC1 activator project, dose response (AID 504762). In kind it is functional.

These results are taken from ChEMBL document CHEMBL1201862, “PubChem BioAssay data set” (2004).

The source made the active and inactive calls.
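Wherever CC50 is given: cells exposed to compound for 72 hours before luminescence readout.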

T3 sequence (P98170 whole entry): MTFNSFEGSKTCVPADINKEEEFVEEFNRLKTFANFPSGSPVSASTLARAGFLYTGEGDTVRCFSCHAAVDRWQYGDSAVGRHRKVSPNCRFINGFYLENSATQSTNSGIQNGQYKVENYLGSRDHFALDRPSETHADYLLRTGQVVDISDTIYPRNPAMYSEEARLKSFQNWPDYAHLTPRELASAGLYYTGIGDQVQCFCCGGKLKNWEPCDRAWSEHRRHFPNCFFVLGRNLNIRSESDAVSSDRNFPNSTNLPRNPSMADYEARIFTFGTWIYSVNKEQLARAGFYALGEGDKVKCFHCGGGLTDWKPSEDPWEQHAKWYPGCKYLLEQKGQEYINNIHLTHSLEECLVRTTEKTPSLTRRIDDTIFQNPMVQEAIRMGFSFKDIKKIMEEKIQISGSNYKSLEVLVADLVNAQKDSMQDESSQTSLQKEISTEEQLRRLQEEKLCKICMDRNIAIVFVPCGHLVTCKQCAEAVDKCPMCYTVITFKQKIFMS
Sequence of Cytochrome P450 2D6 (P10635 whole entry): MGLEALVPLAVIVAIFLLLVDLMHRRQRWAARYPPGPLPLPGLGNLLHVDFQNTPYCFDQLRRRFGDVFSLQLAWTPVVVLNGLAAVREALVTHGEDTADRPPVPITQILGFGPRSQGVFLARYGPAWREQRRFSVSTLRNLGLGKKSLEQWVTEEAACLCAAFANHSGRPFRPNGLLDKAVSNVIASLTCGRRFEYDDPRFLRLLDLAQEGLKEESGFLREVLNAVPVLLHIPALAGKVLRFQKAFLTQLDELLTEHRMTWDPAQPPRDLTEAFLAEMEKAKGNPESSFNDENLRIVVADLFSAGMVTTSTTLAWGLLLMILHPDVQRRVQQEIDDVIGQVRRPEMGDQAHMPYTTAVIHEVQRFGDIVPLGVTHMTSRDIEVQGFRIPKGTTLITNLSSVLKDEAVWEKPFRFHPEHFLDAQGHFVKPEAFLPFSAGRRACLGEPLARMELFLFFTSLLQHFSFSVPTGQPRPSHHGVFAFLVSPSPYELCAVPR
Sequence of Voltage-dependent T-type calcium channel subunit alpha-1H (O95180 whole entry): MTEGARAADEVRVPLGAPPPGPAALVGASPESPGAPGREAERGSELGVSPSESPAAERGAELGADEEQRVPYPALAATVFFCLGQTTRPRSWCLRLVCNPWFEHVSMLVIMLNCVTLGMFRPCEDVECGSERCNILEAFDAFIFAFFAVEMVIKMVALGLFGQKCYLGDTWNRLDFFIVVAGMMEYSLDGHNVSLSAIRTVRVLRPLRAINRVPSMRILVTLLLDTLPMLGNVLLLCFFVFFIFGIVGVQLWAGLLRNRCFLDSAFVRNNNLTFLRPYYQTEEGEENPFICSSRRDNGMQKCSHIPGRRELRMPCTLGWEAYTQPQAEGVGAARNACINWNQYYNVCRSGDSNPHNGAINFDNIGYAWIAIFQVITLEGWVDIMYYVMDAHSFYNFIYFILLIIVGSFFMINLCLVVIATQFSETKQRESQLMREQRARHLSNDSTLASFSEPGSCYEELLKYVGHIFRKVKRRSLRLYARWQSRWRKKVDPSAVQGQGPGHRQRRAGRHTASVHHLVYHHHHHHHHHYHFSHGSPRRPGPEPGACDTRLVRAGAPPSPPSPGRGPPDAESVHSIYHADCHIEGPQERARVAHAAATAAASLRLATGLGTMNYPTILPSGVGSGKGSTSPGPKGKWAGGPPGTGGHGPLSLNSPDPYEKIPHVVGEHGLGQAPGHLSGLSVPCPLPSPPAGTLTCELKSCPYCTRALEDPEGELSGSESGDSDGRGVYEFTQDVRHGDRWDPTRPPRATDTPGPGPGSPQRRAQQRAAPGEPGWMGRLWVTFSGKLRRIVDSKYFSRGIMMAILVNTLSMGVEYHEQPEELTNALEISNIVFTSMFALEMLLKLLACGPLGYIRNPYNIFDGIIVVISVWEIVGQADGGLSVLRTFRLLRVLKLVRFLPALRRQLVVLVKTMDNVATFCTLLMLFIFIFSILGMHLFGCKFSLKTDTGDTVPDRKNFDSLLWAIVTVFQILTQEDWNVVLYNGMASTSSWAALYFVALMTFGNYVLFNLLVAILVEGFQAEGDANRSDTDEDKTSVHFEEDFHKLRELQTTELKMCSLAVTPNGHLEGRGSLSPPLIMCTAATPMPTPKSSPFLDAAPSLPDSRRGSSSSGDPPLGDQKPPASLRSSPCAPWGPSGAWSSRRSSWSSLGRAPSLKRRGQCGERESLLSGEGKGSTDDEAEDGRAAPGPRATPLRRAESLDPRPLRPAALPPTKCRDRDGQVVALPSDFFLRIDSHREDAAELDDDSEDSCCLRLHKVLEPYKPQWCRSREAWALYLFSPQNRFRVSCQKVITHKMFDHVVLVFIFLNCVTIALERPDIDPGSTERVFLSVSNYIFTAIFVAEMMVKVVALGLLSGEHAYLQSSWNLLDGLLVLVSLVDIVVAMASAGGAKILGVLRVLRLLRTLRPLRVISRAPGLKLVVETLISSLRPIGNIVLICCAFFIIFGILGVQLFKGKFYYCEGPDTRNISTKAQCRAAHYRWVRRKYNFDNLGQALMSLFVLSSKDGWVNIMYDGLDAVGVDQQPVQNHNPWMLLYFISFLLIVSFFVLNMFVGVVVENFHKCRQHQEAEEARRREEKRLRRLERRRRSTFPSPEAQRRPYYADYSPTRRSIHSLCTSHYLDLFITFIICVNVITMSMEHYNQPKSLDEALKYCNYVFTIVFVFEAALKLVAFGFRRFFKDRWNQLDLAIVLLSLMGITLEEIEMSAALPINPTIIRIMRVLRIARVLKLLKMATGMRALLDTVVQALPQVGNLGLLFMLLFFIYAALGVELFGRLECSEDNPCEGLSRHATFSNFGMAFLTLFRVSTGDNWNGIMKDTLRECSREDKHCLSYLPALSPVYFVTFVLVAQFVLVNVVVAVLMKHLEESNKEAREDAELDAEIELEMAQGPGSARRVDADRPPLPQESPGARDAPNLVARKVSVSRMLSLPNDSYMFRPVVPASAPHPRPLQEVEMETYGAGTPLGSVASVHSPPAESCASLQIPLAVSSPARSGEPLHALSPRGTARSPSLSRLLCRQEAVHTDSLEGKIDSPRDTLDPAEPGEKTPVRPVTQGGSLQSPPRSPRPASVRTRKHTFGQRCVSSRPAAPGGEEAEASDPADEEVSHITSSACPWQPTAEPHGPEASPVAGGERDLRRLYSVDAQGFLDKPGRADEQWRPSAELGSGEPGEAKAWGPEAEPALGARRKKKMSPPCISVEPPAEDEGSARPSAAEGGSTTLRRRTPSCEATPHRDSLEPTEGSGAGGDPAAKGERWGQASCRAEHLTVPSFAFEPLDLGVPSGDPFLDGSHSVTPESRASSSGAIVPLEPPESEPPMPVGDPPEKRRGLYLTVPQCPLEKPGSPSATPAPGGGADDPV

Turning to `O=C(N[C@@H]1CCCN(Cc2ccccc2)C1)c1cc(Cl)cc(Cl)c1`, in assay [1], the EC50 – broadly, the concentration giving half of the maximal effect – is 10 µM (active).
As to `CC[n+]1c(/C=C/C=C/c2ccc(N(C)C)cc2)sc2ccccc21`, the EC50 in [2] is 2.69 µM (active); in assay [3], 1.54 µM (active); in assay [4] it was 2.69 µM (inconclusive); in assay [5], 26.3 µM (active); in assay [6], 26.3 µM (inconclusive); in assay [7], 1.54 µM (inconclusive).
As for `CC(C)CCn1c(N)c(C(=O)NCc2cccs2)c2nc3ccccc3nc21`, the EC50 at Protein RecA was 3.04 µM (active). In addition, in [8], the CC50 (usually the concentration giving 50% cytotoxicity) is > 40 µM (active). The AC50 (commonly the midpoint of the concentration-response curve, whichever way the signal moves) on Cytochrome P450 2D6 is 8.91 µM (inconclusive); in assay [9], 4.01 µM (active); in [10] it was 3.46 µM (active).
As for `N#CCN1C(=S)N=C(Nc2cccc(Cl)c2)C12CCCCC2`, the EC50 is > 100 µM (inactive) in assay [11], > 120 µM (not active) in assay [12], > 120 µM (not active) in assay [13] and > 120 µM (not active) in assay [14].
Regarding `CCOC(=O)C1(CCCc2ccccc2)CCN(C(=O)C2=C(C)OCCO2)CC1`, the IC50 (usually the concentration needed to halve the response being measured) was > 100 µM (inactive) in assay [15] and > 100 µM (not active) in assay [16].
For `COc1cc(OC)cc(C(=O)NC(=S)NNC(=O)c2cnccn2)c1`, the EC50 in assay [12] is 10.2 µM (active); at Hexokinase HKDC1 it was 11.5 µM (active); in assay [13], > 120 µM (not active); on Hexokinase-1, > 80 µM (inactive); in [14] it was 11.5 µM (active).
